{
  "source": "paper PMC10746543",
  "about": "“Design principles for cyclin K molecular glue degraders” (Nature Chemical Biology, 2023)",
  "key": {"CDK12–cyclin K and DDB1": {"target": "T1, CDK12–cyclin K and DDB1 (Homo sapiens, UniProt Q16531+Q9NYV4, K965R)", "T1 construct": "His6–CDK12 (a.a. 713–1,052); full-length or beta-propeller B domain deletion (ΔBPB: a.a. 396–705 deleted) constructs of His6–DDB1ΔBPB, StrepII–Avi–DDB1, or His6–Spy–DDB1; made in house; host or cells: Trichoplusia ni High Five insect cells (baculovirus)", "T1 sequence (Q9NYV4 713-1052 K965R)": "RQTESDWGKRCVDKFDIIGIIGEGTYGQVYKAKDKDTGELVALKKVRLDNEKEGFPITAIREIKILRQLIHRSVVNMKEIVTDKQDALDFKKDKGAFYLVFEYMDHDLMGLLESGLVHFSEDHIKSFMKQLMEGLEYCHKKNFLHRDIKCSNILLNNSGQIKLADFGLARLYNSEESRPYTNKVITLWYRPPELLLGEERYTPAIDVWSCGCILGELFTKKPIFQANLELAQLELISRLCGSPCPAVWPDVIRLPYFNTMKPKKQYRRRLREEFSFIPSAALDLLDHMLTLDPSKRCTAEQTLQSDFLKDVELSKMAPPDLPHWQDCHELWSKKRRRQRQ", "T1 sequence (O75909 1-267 partner)": "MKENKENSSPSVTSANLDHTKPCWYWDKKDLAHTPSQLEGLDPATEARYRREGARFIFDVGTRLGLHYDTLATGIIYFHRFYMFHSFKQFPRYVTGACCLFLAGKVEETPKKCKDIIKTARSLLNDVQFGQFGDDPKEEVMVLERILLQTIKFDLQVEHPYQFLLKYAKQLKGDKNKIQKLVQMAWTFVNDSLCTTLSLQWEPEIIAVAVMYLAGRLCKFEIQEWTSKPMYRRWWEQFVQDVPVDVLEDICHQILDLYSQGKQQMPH", "T1 sequence (Q16531 whole entry)": "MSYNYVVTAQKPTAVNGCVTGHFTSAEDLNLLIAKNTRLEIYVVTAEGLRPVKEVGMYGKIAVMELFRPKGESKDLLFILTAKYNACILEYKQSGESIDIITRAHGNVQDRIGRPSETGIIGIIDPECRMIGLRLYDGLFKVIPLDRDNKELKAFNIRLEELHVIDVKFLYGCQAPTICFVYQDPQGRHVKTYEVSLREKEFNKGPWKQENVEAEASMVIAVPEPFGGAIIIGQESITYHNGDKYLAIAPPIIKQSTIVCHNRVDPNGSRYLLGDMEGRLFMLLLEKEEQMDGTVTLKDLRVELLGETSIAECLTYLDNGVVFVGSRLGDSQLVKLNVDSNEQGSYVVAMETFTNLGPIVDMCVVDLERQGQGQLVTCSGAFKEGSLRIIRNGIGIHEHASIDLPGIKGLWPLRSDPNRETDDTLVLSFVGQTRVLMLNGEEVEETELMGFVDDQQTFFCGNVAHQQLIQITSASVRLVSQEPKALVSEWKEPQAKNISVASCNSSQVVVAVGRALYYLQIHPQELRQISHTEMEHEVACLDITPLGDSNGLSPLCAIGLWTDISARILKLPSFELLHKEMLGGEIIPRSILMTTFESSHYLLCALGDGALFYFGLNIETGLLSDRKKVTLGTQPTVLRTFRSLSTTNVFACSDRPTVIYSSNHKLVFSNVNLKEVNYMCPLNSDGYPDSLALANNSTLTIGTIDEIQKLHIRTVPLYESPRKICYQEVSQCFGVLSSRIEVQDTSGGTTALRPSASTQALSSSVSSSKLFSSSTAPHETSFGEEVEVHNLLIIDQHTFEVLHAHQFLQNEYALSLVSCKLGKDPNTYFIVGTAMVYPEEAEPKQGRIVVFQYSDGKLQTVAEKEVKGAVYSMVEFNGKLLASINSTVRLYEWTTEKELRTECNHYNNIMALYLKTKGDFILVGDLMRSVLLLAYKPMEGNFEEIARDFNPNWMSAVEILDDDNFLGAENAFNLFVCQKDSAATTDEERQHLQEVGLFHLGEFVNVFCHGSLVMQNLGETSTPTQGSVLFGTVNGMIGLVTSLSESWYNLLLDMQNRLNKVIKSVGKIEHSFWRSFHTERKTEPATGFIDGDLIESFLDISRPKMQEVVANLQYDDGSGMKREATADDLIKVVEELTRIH", "assay": "TR-FRET ternary complex formation assay (compound titration)", "assay_type": "binding", "settings": "for TR-FRET signal at compound concentration 0.468 nM / TR-FRET signal at compound concentration 2.16 nM / TR-FRET signal at compound concentration 3.6 nM / TR-FRET signal at compound concentration 7.92001 nM / TR-FRET signal at compound concentration 15.84 nM / TR-FRET signal at compound concentration 30.96 nM / TR-FRET signal at compound concentration 62.6401 nM / TR-FRET signal at compound concentration 125.28 nM / TR-FRET signal at compound concentration 244.8 nM / TR-FRET signal at compound concentration 993.601 nM / TR-FRET signal at compound concentration 2001.6 nM: raw titration data", "method_in_brief": "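Signal was the ratio of 520 nm to 490 nm fluorescence, measured after a 70 μs delay that reduced background.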"}, "[1]": {"test_system": "cyclin K–eGFP degradation reporter", "assay": "Cyclin K reporter stability analysis (dual-color cyclin K–eGFP reporter)", "assay_type": "cell-based, human", "method_in_brief": "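Values reflect cyclin K–eGFP levels after a 5 h exposure, expressed as the green-to-red fluorescence ratio and scaled to three vehicle-treated controls. Measurements came from HEK293T–Cas9 reporter cells by flow cytometry.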"}, "HEK293T cells": {"test_system": "HEK293T cells", "assay": "Drug sensitivity assay (CellTiter-Glo viability) with or without MLN4924 pretreatment", "assay_type": "cell-based, human", "settings": "Supplementary Table 2; for EC50: Homo sapiens, HEK-293T, HEK293T viability, 72 h, compound alone, read-out: Cellular assays EC50; for Toxicity rescue: MLN4924-mediated cytotoxicity rescue, 10 µM used where n.d.", "method_in_brief": "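HEK293T–Cas9, 0.15 × 10^6 ml^−1; pretreat DMSO vs 100 nM MLN4924; drugs dispensed after 2 h; 3 d exposure; CellTiter-Glo; viability vs DMSO control.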"}, "[2]": {"settings": "source data sheet correlations, read-out: DC50"}, "[3]": {"settings": "sheet MOESM7, read-out: log TR-FRET EC50 (converted)"}},
  "note": "“And” between values parts separate entries of the source, which are not always exact repeats. Equal values may be shown once. Read-outs that look alike come from different tables or passages of the source.",
  "data": [
    {"molecule": "CC[C@@H](CO)Nc1nc(NCc2ccc(-c3ccccn3)cc2)c2ncn(C(C)C)c2n1", "note": "[DS28, reference compound]", "values": [
      {"measurement": "TR-FRET signal at compound concentration 0.468 nM", "setting": "CDK12–cyclin K and DDB1", "result": "0.2434 and 0.2416 and 0.2052"},
      {"measurement": "TR-FRET signal at compound concentration 2.16 nM", "setting": "CDK12–cyclin K and DDB1", "result": "0.3117 and 0.3133 and 0.2621"},
      {"measurement": "TR-FRET signal at compound concentration 3.6 nM", "setting": "CDK12–cyclin K and DDB1", "result": "0.4303 and 0.4364 and 0.3629"},
      {"measurement": "TR-FRET signal at compound concentration 7.92001 nM", "setting": "CDK12–cyclin K and DDB1", "result": "0.6777 and 0.6662 and 0.6266"},
      {"measurement": "TR-FRET signal at compound concentration 15.84 nM", "setting": "CDK12–cyclin K and DDB1", "result": "1.124 and 1.123 and 1.094"},
      {"measurement": "TR-FRET signal at compound concentration 30.96 nM", "setting": "CDK12–cyclin K and DDB1", "result": "2.005 and 1.92 and 1.844"},
      {"measurement": "TR-FRET signal at compound concentration 62.6401 nM", "setting": "CDK12–cyclin K and DDB1", "result": "3.017 and 2.942 and 2.921"},
      {"measurement": "TR-FRET signal at compound concentration 125.28 nM", "setting": "CDK12–cyclin K and DDB1", "result": "3.528 and 3.596 and 3.608"},
      {"measurement": "TR-FRET signal at compound concentration 244.8 nM", "setting": "CDK12–cyclin K and DDB1", "result": "3.609 and 3.755 and 3.8349"},
      {"measurement": "TR-FRET signal at compound concentration 993.601 nM", "setting": "CDK12–cyclin K and DDB1", "result": "3.693 and 3.913 and 3.885"},
      {"measurement": "TR-FRET signal at compound concentration 2001.6 nM", "setting": "CDK12–cyclin K and DDB1", "result": "3.507 and 3.702 and 3.683"},
      {"measurement": "DC50", "setting": "[1]; [2]", "result": 27, "unit": "nM"},
      {"measurement": "EC50", "setting": "HEK293T cells", "result": 221, "unit": "nM"},
      {"measurement": "Toxicity rescue", "setting": "HEK293T cells", "result": 610, "unit": "%"}
    ]},
    {"molecule": "CC[C@H](CO)Nc1nc(NCc2ccc(-c3ccncc3)cc2)c2ncn(C(C)C)c2n1", "note": "[DS44]", "values": [
      {"measurement": "TR-FRET signal at compound concentration 0.468 nM", "setting": "CDK12–cyclin K and DDB1", "result": "0.2822 and 0.2969 and 0.203 and 0.2011"},
      {"measurement": "TR-FRET signal at compound concentration 2.16 nM", "setting": "CDK12–cyclin K and DDB1", "result": "0.3572 and 0.3626 and 0.2614 and 0.2567"},
      {"measurement": "TR-FRET signal at compound concentration 3.6 nM", "setting": "CDK12–cyclin K and DDB1", "result": "0.4873 and 0.5297 and 0.3719 and 0.3575"},
      {"measurement": "TR-FRET signal at compound concentration 7.92001 nM", "setting": "CDK12–cyclin K and DDB1", "result": "0.7272 and 0.8095 and 0.5738 and 0.5707"},
      {"measurement": "TR-FRET signal at compound concentration 15.84 nM", "setting": "CDK12–cyclin K and DDB1", "result": "1.129 and 1.28 and 0.9406 and 0.8919"},
      {"measurement": "TR-FRET signal at compound concentration 30.96 nM", "setting": "CDK12–cyclin K and DDB1", "result": "1.72 and 1.9375 and 1.384 and 1.358"},
      {"measurement": "TR-FRET signal at compound concentration 62.6401 nM", "setting": "CDK12–cyclin K and DDB1", "result": "2.307 and 2.567 and 2.074 and 2.11"},
      {"measurement": "TR-FRET signal at compound concentration 125.28 nM", "setting": "CDK12–cyclin K and DDB1", "result": "2.789 and 3.0284 and 2.71 and 2.759"},
      {"measurement": "TR-FRET signal at compound concentration 244.8 nM", "setting": "CDK12–cyclin K and DDB1", "result": "3 and 3.3475 and 2.848 and 3.078"},
      {"measurement": "TR-FRET signal at compound concentration 993.601 nM", "setting": "CDK12–cyclin K and DDB1", "result": "3.126 and 3.521 and 3.221 and 3.228"},
      {"measurement": "TR-FRET signal at compound concentration 2001.6 nM", "setting": "CDK12–cyclin K and DDB1", "result": "3.1032 and 3.41 and 3.238 and 3.193"},
      {"measurement": "EC50", "setting": "CDK12–cyclin K and DDB1; in vitro complex formation, 50 nM CDK12–cyclin K, 100 nM DDB1, text and figures, read-out: TR-FRET EC50", "result": "36 ± 2", "unit": "nM"},
      {"measurement": "EC50", "setting": "CDK12–cyclin K and DDB1; [3]", "result": 35.6, "unit": "nM"},
      {"measurement": "EC50", "setting": "CDK12–cyclin K and DDB1; source data sheet correlations, read-out: TR-FRET EC50", "result": 35.6, "unit": "nM"},
      {"measurement": "DC50", "setting": "[1]; [2]", "result": 62, "unit": "nM"},
      {"measurement": "EC50", "setting": "HEK293T cells", "result": 300, "unit": "nM"},
      {"measurement": "Toxicity rescue", "setting": "HEK293T cells", "result": 857, "unit": "%"}
    ]},
    {"molecule": "CC[C@H](CO)Nc1nc(NCCC2CCCCCCC2)c2ncn(C(C)C)c2n1", "note": "[DS38]", "values": [
      {"measurement": "EC50", "setting": "CDK12–cyclin K and DDB1; Supplementary Table 2, read-out: TR-FRET EC50 TR-FRET", "result": 5740, "unit": "nM"},
      {"measurement": "TR-FRET signal, individual replicate", "setting": "CDK12–cyclin K and DDB1; compound concentration 4.68 nM", "result": "0.1996 and 0.2467"},
      {"measurement": "TR-FRET signal, individual replicate", "setting": "CDK12–cyclin K and DDB1; compound concentration 21.6 nM", "result": "0.2088 and 0.2442"},
      {"measurement": "TR-FRET signal, individual replicate", "setting": "CDK12–cyclin K and DDB1; compound concentration 36 nM", "result": "0.2151 and 0.2401"},
      {"measurement": "TR-FRET signal, individual replicate", "setting": "CDK12–cyclin K and DDB1; compound concentration 79.2001 nM", "result": "0.2234 and 0.2572"},
      {"measurement": "TR-FRET signal, individual replicate", "setting": "CDK12–cyclin K and DDB1; compound concentration 158.4 nM", "result": "0.237 and 0.2667"},
      {"measurement": "TR-FRET signal, individual replicate", "setting": "CDK12–cyclin K and DDB1; compound concentration 309.6 nM", "result": "0.2597 and 0.2826"},
      {"measurement": "TR-FRET signal, individual replicate", "setting": "CDK12–cyclin K and DDB1; compound concentration 626.401 nM", "result": "0.3077 and 0.3432"},
      {"measurement": "TR-FRET signal, individual replicate", "setting": "CDK12–cyclin K and DDB1; compound concentration 1252.8 nM", "result": "0.3992 and 0.4242"},
      {"measurement": "TR-FRET signal, individual replicate", "setting": "CDK12–cyclin K and DDB1; compound concentration 2448 nM", "result": "0.5328 and 0.5897"},
      {"measurement": "TR-FRET signal, individual replicate", "setting": "CDK12–cyclin K and DDB1; compound concentration 9936.01 nM", "result": "1.042 and 1.049"},
      {"measurement": "TR-FRET signal, individual replicate", "setting": "CDK12–cyclin K and DDB1; compound concentration 20016 nM", "result": "1.225 and 1.271"},
      {"measurement": "EC50", "setting": "CDK12–cyclin K and DDB1; [3]", "result": 5740, "unit": "nM"},
      {"measurement": "DC50", "setting": "[1]; Supplementary Table 2, HEK293T cycK-eGFP reporter, 5 h, read-out: Cellular assays DC50", "result": "> 10000", "unit": "nM"},
      {"measurement": "EC50", "setting": "HEK293T cells", "result": "> 10000", "unit": "nM"},
      {"measurement": "Toxicity rescue", "setting": "HEK293T cells", "result": 0, "unit": "%"}
    ]}
  ]
}
